Measurements: patent publication US8313771B2, “Phosphazene hydrogels with chemical corss-link, preparation method thereof and use thereof” (Korea Institute of Science and Technology, priority 2007, dated 2012)

Conditions: pH 7.4
Protocol: The solutions were put into a chamber of a Brookfield DV-III+ Rheometer equipped with a thermostatic bath (TC-501). The sol-gel phase transition was observed while raising the temperature at the rate of 0.04° C./min and a shear rate of 0.1 to 1.7 per second.
(maximum) gelling temp. (temperature)” means the temperature where the viscosity of the polymer solution reaches the maximum point, and the term “Max. gel solidity” means the maximum viscosity of the polymer solution.

Compared with “poly[(isoleucine ethyl ester)(aminomethoxypolyethylene glycol 550)(cysteine ethyl ester)phosphazene] [Example 10]”, “poly[(isoleucine ethyl ester)(aminomethoxypolyethylene glycol 550)(aminoethylmethacrylate)phosphazene] [Example 4]” is higher in Max. gelling temp.: 32 °C for the first, 39 °C for the second.

First: poly[(isoleucine ethyl ester)(aminomethoxypolyethylene glycol 550)(tyramine)phosphazene] [Example 18]
Second: [(isoleucine ethyl ester)(aminomethoxypolyethylene glycol 550)(aminoethylmethacrylate)phosphazene] [Example 2]
The Max. gelling temp. of the first is higher: 34 °C for the first, 28 °C for the second.
